Reference: patent publication US20090226384A1, “ANTIMICROBIAL COMPOSITION CONTAINING TRICLOSAN AND AT LEAST ONE FUNCTIONALIZED HYDROCARBON” (priority 2006, published 2009)
Converted amounts (≈) assume the structure as drawn. Like-named read-outs stand apart in the source and are kept apart here.

How the values were obtained:
[1] = system: Malassezia furfur (Pityrosporum ovale) MTCC 1374; assay: MIC by macrobroth double dilution (NCCLS); assay type: cell-based
Protocol: (§1) MIC value—is the lowest concentration of the antimicrobial agent required to inhibit growth of the microorganism was determined by the macrobroth double dilution method as per the NCCLS guidelines. (Reference Method for broth dilution antifungal susceptibility testing of Yeasts, Approved Standard; M27A, Vol. 17, No. 9, 1997 & Methods for dilution antimicrobial susceptibility tests for bacteria that grow aerobically; Approved Standard—5th Ed., M7-A5, Vol. 20, No. 2, 2000. National Committee for Clinical Laboratory Standards, Wayne, Pa.).
(§2) The test substances viz., TCS, CMB, ZPTO, KTZ, LGO, Citral, Nerol & Geraniol were prepared as stock solutions. Weighed 10 mg of TCS, CMB, ZPTO, & KTZ individually and dissolved in 1 ml of solvent (IN NaOH for TCS and DMSO for CMB, ZPTO & KTZ) and diluted in 19 ml SDB. The concentration of the prepared substances was 500 μg/ml. Similarly, weighed 400 mg of LGO, Citral, Nerol & Geraniol individually and dissolved in 2 ml DMSO and diluted in 18 ml SDB. The concentration of LGO, Citral, Nerol & Geraniol was 20000 μg/ml. All test solutions were prepared afresh prior to determination of MIC.
(§3) S. aureus, S. epidermidis and B. subtilis were cultured in Mueller Hinton Agar (MHA) for 24 hrs. at 37° C. 1-2 colonies were suspended in MHB overnight at 37° C. C. albicans and A. niger were cultured in Sabauraud Dextrose Agar (SDA) at 28° C. for 24 hrs and 4 days respectively. 1-2 colonies of C. albicans was suspended in SDB and cultured overnight at 28° C. Aspergillus spores were washed with physiological saline prior to testing. M. furfur was cultured in SDA with 1% Tween 80 for 72 hrs at 32° C. Colonies were suspended in SDB with 1% Tween 80 and incubated at 32° C. M. restricta was cultured in Dixon agar at 32° C. for 3-4 days. Colonies were suspended in saline prior to testing.
(§4) Colonies suspended in broth/saline were determined for counts photometrically. (Hammer K A, et al.: Antimicrob. Agents Chemo., (2000), 44(2): 467-469). The organisms were diluted such that the final concentration was 1×10^6 cfu/ml for S. aureus, S. epidermidis and B. subtilis, 1×10^5 cfu/ml for C. albicans and A. niger and 2×10^3 cfu/ml for M. furfur and M. restricta.
(§5) Double fold serial dilutions were done with the test substance, such that the final concentration of TCS was between 250 μg/ml and 0.03 μg/ml; and that of functionalized hydrocarbon (Citral, Nerol, Geraniol) and/or mixtures containing such functionalized hydrocarbons (LGO) was between 10000 μg/ml-19.53 μg/ml. Inoculated organisms were added to the tubes and required controls were also set up in the assay to rule out contamination/inactivation of the test substance.
(§6) Tubes were incubated for 24 hrs at 37° C. for S. aureus, S. epidermidis and B. subtilis; at 28° C. for C. albicans; for 48 hrs at 28° C. for A. niger, 32° C. for M, furfur and M. restricta. At the end of the incubation period, 10 μl aliquots from each tube were spot inoculated onto Nutrient agar (for bacteria), SDA (for C. albicans & A. niger), SDA with 1% Tween 80 for M. furfur and Dixon Agar for M. restricta. The plates were incubated for 24 hrs at 37° C. (S. aureus, S. epidermidis & B. subtilis), at 28° C. (C. albicans); 3-4 days at 28° C. (A. niger), 48-72 hrs at 32° C. (M. furfur & M. restricta) when the colonies became visible.
(§7) At the end of the incubation period, plates were checked for growth of colonies.
(§8) 140 mg of the sample was dissolved in 2 ml of Dimethyl Sulfoxide (DMSO) and further diluted in 18 ml of SDB. The final concentration of antimicrobial and functionalized hydrocarbon and/or mixtures containing such functionalized hydrocarbons in the mixture was 333.33 μg/ml and 6666.66 μg/ml respectively.
(§9) 205 mg of the sample was dissolved in 2 ml of Dimethyl Sulfoxide (DMSO) and further diluted in 18 ml of SDB. The final concentration of antimicrobial and functionalized hydrocarbon and/or mixtures containing such functionalized hydrocarbons in the mixture was 250 μg/ml and 10000 μg/ml respectively.

[2] = system: Aspergillus niger MTCC 1344; assay: MIC by macrobroth double dilution (NCCLS); assay type: cell-based
Protocol: as §1, §2, §3, §4, §5, §6, §7, §8, §9

[3] = system: Bacillus subtilis MTCC 441; assay: MIC by macrobroth double dilution (NCCLS); assay type: cell-based
Protocol: as §1, §2, §3, §4, §5, §6, §7, §8, §9

[4] = system: Candida albicans MTCC 3017; assay: MIC by macrobroth double dilution (NCCLS); assay type: cell-based
Protocol: as §1, §2, §3, §4, §5, §6, §7, §8, §9

[5] = system: Malassezia restricta CBS 7877; assay: MIC by macrobroth double dilution (NCCLS); assay type: cell-based
Protocol: as §1, §2, §3, §4, §5, §6, §7, §8, §9

[6] = system: Staphylococcus aureus MTCC 96; assay: MIC by macrobroth double dilution (NCCLS); assay type: cell-based
Protocol: as §1, §2, §3, §4, §5, §6, §7, §8, §9

[7] = system: Staphylococcus epidermidis MTCC 435; assay: MIC by macrobroth double dilution (NCCLS); assay type: cell-based
Protocol: as §1, §2, §3, §4, §5, §6, §7, §8, §9

[8] = Bhargava & Leonard 1996; cited from earlier work
[9] = Malassezia furfur, MTCC1374, individual ingredient, M. furfur, read-out: MIC
[10] = MTCC1344, individual ingredient, A. niger, read-out: MIC
[11] = MTCC441, individual ingredient, B. subtilis, read-out: MIC
[12] = MTCC3017, individual ingredient, C. albicans, read-out: MIC
[13] = CBS7877, individual ingredient, M. restricta, read-out: MIC
[14] = MTCC96, individual ingredient, S. aureus, read-out: MIC
[15] = MTCC435, individual ingredient, S. epidermidis, read-out: MIC

Compound | MIC [1, 9] [µg/mL] | MIC [2, 10] [µg/mL] | MIC [3, 11] [µg/mL] | MIC [4, 12] [µg/mL] | MIC [5, 13] [µg/mL] | MIC [6, 14] [µg/mL] | MIC [7, 15] [µg/mL] | further results
CC(C)=CCC/C(C)=C/CO [Geraniol] | 156 (≈ 1010 µM) | 5000 (≈ 32400 µM) | 2500 (≈ 16200 µM) | 1250 (≈ 8100 µM) | 312 (≈ 2030 µM) | 5000 (≈ 32400 µM) | 1250 (≈ 8100 µM) | –
CC(C)=CCC/C(C)=C\CO [Nerol] | 156 (≈ 1010 µM) | 1250 (≈ 8100 µM) | 10000 (≈ 64800 µM) | 1250 (≈ 8100 µM) | 312 (≈ 2030 µM) | 5000 (≈ 32400 µM) | 1250 (≈ 8100 µM) | –
Oc1cc(Cl)ccc1Oc1ccc(Cl)cc1Cl [TCS, 2,4,4′-trichloro-2′-hydroxydiphenyl ether, reference compound] | – | – | – | – | – | – | – | MIC ([2]; MTCC1344): 31.2 µg/mL (≈ 108 µM); MIC ([3]; MTCC441): 15.6 µg/mL (≈ 53.9 µM); MIC ([4]; MTCC3017): 15.6 µg/mL (≈ 53.9 µM); MIC ([1]; Malassezia furfur, MTCC1374): 62.5 µg/mL (≈ 216 µM); MIC ([5]; CBS7877): 62.5 µg/mL (≈ 216 µM); MIC ([6]; MTCC96): 1.95 µg/mL (≈ 6.73 µM); MIC ([7]; MTCC435): 7.81 µg/mL (≈ 27 µM); carcinogenic, mutagenic or teratogenic effects [8]: not found to have any carcinogenic, mutagenic or teratogenic effects; toxicity to humans and other mammals [8]: relatively non-toxic
Zinc Pyrithione [ZPTO] | – | – | – | – | – | – | – | MIC ([1]; individual ingredient, M. furfur): 3.9 µg/mL

Continued, in another order:

MIC [1, 9] [µg/mL] | MIC [2, 10] [µg/mL] | MIC [3, 11] [µg/mL] | MIC [4, 12] [µg/mL] | MIC [5, 13] [µg/mL] | MIC [6, 14] [µg/mL] | MIC [7, 15] [µg/mL] | Compound | further results
1.95 (≈ 6.66 µM) | – | – | – | – | – | – | CC(C)(C)C(=O)C(Oc1ccc(Cl)cc1)n1ccnc1 (stereo not drawn) [CMB, Climbazole] | –
39.1 (≈ 257 µM) | 625 (≈ 4110 µM) | 5000 (≈ 32800 µM) | 156 (≈ 1030 µM) | 156 (≈ 1030 µM) | 312 (≈ 2050 µM) | 312 (≈ 2050 µM) | CC(C)=CCCC(C)=CC=O [Citral] | –
0.48 (≈ 0.903 µM) | – | – | – | – | – | – | CC(=O)N1CCN(c2ccc(OCC3COC(Cn4ccnc4)(c4ccc(Cl)cc4Cl)O3)cc2)CC1 (stereo not drawn) [KTZ, Ketoconazole] | –
